pIC50: −log10 of the molar value.
What was measured:
B-Raf kinase = molecular target: T1, B-Raf kinase (Homo sapiens, UniProt P15056); assay: Biochemical assay for B-Raf.1 (coupled pyruvate kinase/lactate dehydrogenase); conditions: read-out: BRAF.1 IC50
T1 construct: GST (N); purchased Sigma
Procedure, shortened: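 NADH oxidation followed at 340 nm in a pyruvate kinase/lactate dehydrogenase-coupled assay with 0.13 nM B-Raf, 30.1 nM MEK substrate, 1 mM ATP, pH 7.5 Tris buffer, 1% DMSO. Monitored 6 h at 30 °C; rate taken from 4–5 h. IC50 from four-parameter sigmoidal fit.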

A-Raf kinase = molecular target: T2, A-Raf kinase (Homo sapiens, UniProt P10398, Y301D/Y302D); assay: Biochemical assay for A-Raf.1 (coupled pyruvate kinase/lactate dehydrogenase); conditions: read-out: ARAF.1 IC50
T2 construct: purchased Sigma
T2 sequence (P10398 with tags, fused parts or gaps Y301D/Y302D): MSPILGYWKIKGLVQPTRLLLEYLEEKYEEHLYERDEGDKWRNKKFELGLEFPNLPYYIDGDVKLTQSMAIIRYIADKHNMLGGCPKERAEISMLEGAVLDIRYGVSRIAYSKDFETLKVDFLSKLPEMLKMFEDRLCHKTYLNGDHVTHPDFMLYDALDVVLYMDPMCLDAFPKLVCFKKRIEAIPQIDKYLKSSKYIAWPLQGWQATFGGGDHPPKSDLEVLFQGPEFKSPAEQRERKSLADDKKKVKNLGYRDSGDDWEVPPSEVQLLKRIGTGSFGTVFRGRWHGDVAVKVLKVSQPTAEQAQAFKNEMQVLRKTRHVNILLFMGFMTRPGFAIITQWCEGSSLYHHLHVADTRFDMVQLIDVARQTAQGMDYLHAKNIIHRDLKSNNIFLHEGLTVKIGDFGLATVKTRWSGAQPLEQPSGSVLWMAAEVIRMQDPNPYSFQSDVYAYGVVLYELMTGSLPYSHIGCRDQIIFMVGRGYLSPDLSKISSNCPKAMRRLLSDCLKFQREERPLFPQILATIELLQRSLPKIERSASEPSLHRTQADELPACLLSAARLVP
Procedure, shortened: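 A-Raf (5.55 nM) phosphorylating 30.1 nM MEK with 1 mM ATP was monitored by pyruvate kinase/lactate dehydrogenase-coupled NADH oxidation at 340 nm for 6 h at 30° C, in pH 7.5 Tris buffer with 15 mM MgCl2, 1% DMSO. Rates from 4–5 h gave percent inhibition; IC50 by four-parameter fit.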

B-Raf (V600E) kinase = molecular target: T3, B-Raf (V600E) kinase (Homo sapiens, UniProt P15056, V600E); assay: Biochemical assay for B-Raf (V600E).1 (coupled pyruvate kinase/lactate dehydrogenase); conditions: read-out: BRAF V600E.1 IC50
T3 construct: B-Raf (V600E) residues 416-766 with a; GST (N); purchased SignalChem
T3 sequence (P15056 416-766 V600E): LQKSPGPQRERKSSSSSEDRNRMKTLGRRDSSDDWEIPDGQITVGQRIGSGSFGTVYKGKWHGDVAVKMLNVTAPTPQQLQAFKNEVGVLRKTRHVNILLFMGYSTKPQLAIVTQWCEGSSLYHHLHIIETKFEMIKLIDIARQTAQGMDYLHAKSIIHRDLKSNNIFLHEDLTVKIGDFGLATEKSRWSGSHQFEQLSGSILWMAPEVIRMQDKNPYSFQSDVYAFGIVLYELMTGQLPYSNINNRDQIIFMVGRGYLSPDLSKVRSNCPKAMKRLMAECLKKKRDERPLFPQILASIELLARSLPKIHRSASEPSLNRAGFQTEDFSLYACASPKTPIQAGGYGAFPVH
Procedure, shortened: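 0.03 nM B-Raf(V600E) phosphorylating 30.1 nM MEK at 1 mM ATP, pH 7.5, coupled to PK/LDH, with NADH oxidation followed at 340 nm for 6 h at 30 °C. Rates taken from the 3-4 h window. IC50 from a four-parameter fit of percent inhibition.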

C-Raf kinase = molecular target: T4, C-Raf kinase (Homo sapiens, UniProt P04049, Y340D/Y341D); assay: Biochemical assay for C-Raf.1 (coupled pyruvate kinase/lactate dehydrogenase); conditions: read-out: CRAF.1 IC50
T4 construct: Y340D,; GST (N); purchased Sigma
T4 sequence (P04049 307-648 Y340D/Y341D): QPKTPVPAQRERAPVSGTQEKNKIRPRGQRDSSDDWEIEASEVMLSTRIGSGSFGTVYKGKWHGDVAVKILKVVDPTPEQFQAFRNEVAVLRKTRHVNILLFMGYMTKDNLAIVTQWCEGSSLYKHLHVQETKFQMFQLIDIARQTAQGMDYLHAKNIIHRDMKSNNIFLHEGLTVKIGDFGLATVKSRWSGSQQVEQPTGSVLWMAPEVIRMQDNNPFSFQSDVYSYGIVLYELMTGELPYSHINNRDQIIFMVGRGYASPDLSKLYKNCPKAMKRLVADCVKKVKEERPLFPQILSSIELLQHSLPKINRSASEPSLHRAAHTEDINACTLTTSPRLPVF
Procedure, shortened: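 C-Raf (0.43 nM) with MEK 30.1 nM and 1 mM ATP in Tris pH 7.5/MgCl2 buffer, activity coupled via PK/LDH to NADH oxidation (A340), 6 h at 30° C. Rates from 4–5 h window converted to % inhibition versus controls; IC50 by four-parameter fit, 1% DMSO.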

T1 sequence (P15056 416-766): as the sequence (P15056 416-766 V600E) above, with E185V counted along it

pIC50 (B-Raf kinase)	pIC50 (A-Raf kinase)	pIC50 (B-Raf (V600E) kinase)	pIC50 (C-Raf kinase)	SMILES
≥ 7.00	6.30 to 7.00	≥ 7.00	≥ 7.00	Cc1ccc(NC(=O)Nc2cccc(C(F)(F)F)c2)cc1-c1cc(OCCO)nc(N2CCOCC2)c1 [Example 3, 1-(3-(2-(2-hydroxyethoxy)-6-morpholinopyridin-4-yl)-4-methylphenyl)-3-(3-(trifluoromethyl)phenyl)urea]
≥ 7.00	< 6.00	≥ 7.00	≥ 7.00	Cc1ccc(NC(=O)NCCC(C)(C)C)cc1-c1cc(N2CCOCC2)nc(N2CCOCC2)c1 [Example 4]
≥ 7.00	< 6.00	≥ 7.00	≥ 7.00	Cc1cc(F)c(NC(=O)NCCC(C)(C)C)cc1-c1cc(OCCO)nc(C2=CCOCC2)c1 [Example 7]
≥ 7.00	< 6.00	≥ 7.00	≥ 7.00	Cc1cc(F)c(NC(=O)NCCC(C)(C)C)cc1-c1cc(N2CCOCC2)nc(N2CCOCC2)c1 [Example 10]
≥ 7.00	< 6.00	≥ 7.00	≥ 7.00	Cc1cc(F)c(NC(=O)NCCC(C)(C)F)cc1-c1cc(OCCO)nc(-c2ccnc3[nH]ncc23)c1 [Example 94]
6.00 to 6.30	< 6.00	≥ 7.00	6.30 to 7.00	COC(=O)Nc1cc(-c2cc(-c3cc(NC(=O)NC[C@H]4CCO4)c(F)cc3C)cc(OCCO)n2)ccn1 [Example 96]
≥ 7.00	< 6.00	≥ 7.00	≥ 7.00	Cc1cc(F)c(NC(=O)NCCC(C)(C)F)cc1-c1cc(OCCO)nc(-c2ccnc3[nH]ccc23)c1 [Example 97]
≥ 7.00	6.00 to 6.30	≥ 7.00	≥ 7.00	Cc1cc(F)c(NC(=O)NCC(C)C)cc1-c1cc(OCCO)nc(-c2ccnc(NC(=O)C3CC3)c2)c1 [Example 99]
≥ 7.00	< 6.00	≥ 7.00	≥ 7.00	Cc1cc(F)c(NC(=O)NCCC(C)(C)F)cc1-c1cccc(-c2ccnc3[nH]ncc23)c1 [Example 100]
6.30 to 7.00	< 6.00	≥ 7.00	≥ 7.00	Cc1cc(F)c(NC(=O)NC2CC3(COC3)C2)cc1-c1cc(OCCO)nc(-c2ccnc3[nH]ncc23)c1 [Example 101]
≥ 7.00	< 6.00	≥ 7.00	≥ 7.00	Cc1ncc(NC(=O)NC[C@H](O)C(C)(C)C)cc1-c1ccnc(-c2ccnc(NC(=O)C3CC3)c2)c1 [Example 102]
≥ 7.00	< 6.00	≥ 7.00	≥ 7.00	COC(=O)Nc1cc(-c2cc(-c3cc(NC(=O)NCCC4(C)CC4)cnc3C)ccn2)ccn1 [Example 103]
≥ 7.00	6.30 to 7.00	≥ 7.00	≥ 7.00	COC1(CCNC(=O)Nc2cc(-c3cccc(-c4cc(NC(=O)C5CC5)ncn4)c3)c(C)cc2F)CC1 [Example 104]
≥ 7.00	6.30 to 7.00	≥ 7.00	≥ 7.00	Cc1cc(F)c(NC(=O)NCCC(F)F)cc1-c1cc(OCCO)nc(-c2ccnc(NC(=O)C3CC3)c2)c1 [Example 105]
≥ 7.00	< 6.00	≥ 7.00	≥ 7.00	Cc1cc(F)c(NC(=O)NCCC(C)C)cc1-c1cc(OCCO)nc(-c2ccnc(NC(=O)C3CC3)c2)c1 [Example 106]
≥ 7.00	6.00 to 6.30	≥ 7.00	≥ 7.00	Cc1ncc(NC(=O)NCCC2(C)CC2)cc1-c1ccnc(-c2ccnc(NC(=O)C3CC3)c2)n1 [Example 107]
≥ 7.00	6.30 to 7.00	≥ 7.00	≥ 7.00	COC(C)(C)CCNC(=O)Nc1cc(-c2ccnc(-c3ccnc(NC(=O)C4CC4)c3)n2)c(C)cc1F [Example 108]
≥ 7.00	< 6.00	≥ 7.00	≥ 7.00	COC(=O)Nc1cc(-c2cc(-c3cc(NC(=O)NCCC(C)(C)C)cnc3C)ccn2)ccn1 [Example 109]
6.30 to 7.00	< 6.00	≥ 7.00	6.30 to 7.00	Cc1cc(F)c(NC(=O)NCCC2(C)COC2)cc1-c1cc(OCCO)nc(-c2ccnc3[nH]ncc23)c1 [Example 110]
≥ 7.00	< 6.00	≥ 7.00	≥ 7.00	Cc1cc(F)c(NC(=O)NCC23CC(F)(C2)C3)cc1-c1cc(OCCO)nc(-c2ccnc3[nH]ncc23)c1 [Example 111]

pIC50 (B-Raf kinase)	pIC50 (A-Raf kinase)	pIC50 (B-Raf (V600E) kinase)	pIC50 (C-Raf kinase)	SMILES
≥ 7.00	< 6.00	≥ 7.00	≥ 7.00	Cc1ncc(NC(=O)NCCC2(C)CC2)cc1-c1cc(OCCO)nc(-c2ccnc3c2CC(=O)N3)c1 [Example 112]
≥ 7.00	6.00 to 6.30	≥ 7.00	≥ 7.00	Cc1ncc(NC(=O)NCCC2(C)CC2)cc1-c1cc(OCCO)nc(-c2ccnc(NC(=O)C3CC3)c2)c1 [Example 113]
≥ 7.00	6.30 to 7.00	≥ 7.00	≥ 7.00	Cc1cc(F)c(NC(=O)NCCC(C)(C)F)cc1-c1nccc(-c2ccnc(NC(=O)C3CC3)c2)n1 [Example 114]
≥ 7.00	< 6.00	≥ 7.00	≥ 7.00	COC(=O)Nc1cc(-c2cc(-c3cc(NC(=O)NCCC(C)C)c(F)cc3C)cc(OCCO)n2)ccn1 [Example 115]
≥ 7.00	6.30 to 7.00	≥ 7.00	≥ 7.00	COC1(CCNC(=O)Nc2cc(-c3ccnc(-c4ccnc(NC(=O)C5CC5)c4)n3)c(C)cc2F)CC1 [Example 117]
≥ 7.00	< 6.00	≥ 7.00	≥ 7.00	Cc1ncc(NC(=O)NCCC2(C)CC2)cc1-c1ccnc(-c2ccnc(NC(=O)C3CC3)c2)c1 [Example 118]
6.30 to 7.00	< 6.00	≥ 7.00	6.30 to 7.00	CNC(=O)c1cc(-c2cnnc(-c3cc(NC(=O)NCCC(C)(C)C)c(F)cc3C)c2)ccn1 [Example 119]
≥ 7.00	< 6.00	≥ 7.00	≥ 7.00	Cc1ncc(NC(=O)NCCC(C)(C)C)cc1-c1cc(-c2ccnc(NC(=O)C3CC3)c2)cnn1 [Example 120]
6.30 to 7.00	< 6.00	≥ 7.00	≥ 7.00	COC(C)(C)CCNC(=O)Nc1cnc(C)c(-c2cc(-c3ccnc(NC(=O)C4CC4)c3)cnn2)c1 [Example 121]
≥ 7.00	< 6.00	≥ 7.00	≥ 7.00	COC(=O)Nc1nccc(-c2cc(OCCO)cc(-c3cc(NC(=O)NCCC4(C)CC4)c(F)cc3C)c2)n1 [Example 122]
< 6.00	< 6.00	≥ 7.00	6.00 to 6.30	CNC(=O)c1cc(-c2cnnc(-c3cc(NC(=O)NCCC(C)(C)OC)c(F)cc3C)c2)ccn1 [Example 123]
≥ 7.00	< 6.00	≥ 7.00	≥ 7.00	CCC(C)CCNC(=O)Nc1cnc(C)c(-c2ccnc(-c3ccnc(NC(=O)C4CC4)c3)c2)c1 (stereo not shown) [Example 124]
< 6.00	< 6.00	6.30 to 7.00	< 6.00	COC(=O)Nc1cc(-c2cc(-c3cc(NC(=O)NCCN4CCC4)c(F)cc3C)cc(OCCO)n2)ccn1 [Example 125]
≥ 7.00	6.00 to 6.30	≥ 7.00	≥ 7.00	Cc1ncc(NC(=O)NC2CC(C)(C)C2)cc1-c1cc(OCCO)nc(-c2ccnc(NC(=O)C3CC3)c2)c1 [Example 126]
≥ 7.00	6.30 to 7.00	≥ 7.00	≥ 7.00	Cc1cc(F)c(NC(=O)NCCC(C)(C)F)cc1-c1cccc(-c2cc(NC(=O)C3CC3)ncn2)c1 [Example 127]
≥ 7.00	6.30 to 7.00	≥ 7.00	≥ 7.00	Cc1cc(F)c(NC(=O)NCCC(C)(C)F)cc1-c1ccnc(-c2ccnc(NC(=O)C3CC3)c2)n1 [Example 128]
≥ 7.00	< 6.00	≥ 7.00	≥ 7.00	COC(=O)Nc1cc(-c2nccc(-c3cc(NC(=O)NCCC(C)(C)OC)c(F)cc3C)n2)ccn1 [Example 129]
6.30 to 7.00	< 6.00	≥ 7.00	≥ 7.00	Cc1ncc(NC(=O)NCCC(C)(C)F)cc1-c1nccc(-c2ccnc(NC(=O)C3CC3)c2)n1 [Example 130]
≥ 7.00	6.30 to 7.00	≥ 7.00	≥ 7.00	Cc1cc(F)c(NC(=O)NCCC(C)(C)C)cc1-c1cc(-c2ccnc(NC(=O)C3CC3)c2)cnn1 [Example 131]
6.30 to 7.00	< 6.00	≥ 7.00	6.30 to 7.00	CNC(=O)c1cc(-c2cnnc(-c3cc(NC(=O)NCCC(C)(C)F)c(F)cc3C)c2)ccn1 [Example 132]
